# Earlier results, collected in patent publication US20070031570A1, “Hydrothermically processed compositions containing phytosterols” (Archer-Daniels-Midland Company, priority 2002, published 2007).
# Like-named read-outs stand apart in the source and are kept apart here.
# Assays:
# [1] = 2.8 g sitostanol/day given as sitostanol ester in margarine
# [2] = not given; remark: listed apart in the source
compound,measurement,setting,value
sitostanol ester,reduced LDL cholesterol,[1],16%
same,less effective at reducing cholesterol absorption compared to the unesterified sterol,"humans, dissolved in dietary fat",21%
CC[C@H](CC[C@@H](C)[C@H]1CC[C@H]2[C@@H]3CC=C4C[C@@H](O)CC[C@]4(C)[C@H]3CC[C@]12C)C(C)C [sitosterol],decrease serum cholesterol levels,"[2]; dose-response study, 3-9 g/day of powdered sitosterol",12%
same,reduced serum cholesterol,[2]; doses of 5-18 g sitosterol/day,16-20%
neomycin,effect on cholesterol absorption,orally-administered,reduces cholesterol absorption effectively
CC[C@H](CC[C@@H](C)[C@H]1CC[C@H]2[C@@H]3CC[C@H]4C[C@@H](O)CC[C@]4(C)[C@H]3CC[C@]12C)C(C)C [sitostanol],effect on serum cholesterol,"[2]; subjects with moderate hypercholesterolemia, 3 g/day",no effect
same,reduced serum cholesterol,"[2]; subjects with severe hypercholesterolemia, 1.5 g/day",15%
same,reduces cholesterol absorption,delivery system which avoids an oil phase ('562 and '776 patents),≤ 37%
